# Assay results taken from patent US12257260B2, “Pharmaceutical use of anemoside B4 against acute gouty arthritis” (priority 2018, dated 2025).
# How the values were obtained:
# [1] = tested on: rats with acute gouty arthritis induced by MSU; test: Example 2: further investigation at reduced dose, sodium urate (MSU)-induced acute gouty arthritis in rats, joint swelling; format: in vivo, SD rats; design: key to Swelling degree 2 h after modelling / Swelling degree 4 h after modelling / Swelling degree 6 h after modelling: joint volume after modeling minus joint volume before modeling
# Excerpt: Based on Example 1, the dosage of anemoside B4 was reduced, and the effect on alleviating the joint swelling of acute gouty arthritis caused by sodium urate in rats was further investigated. • 1. Experimental materials: same as item “1.” in example 1. • 2. Experimental method • 2.1 Preparation of sodium urate (MSU) crystals and suspension: same as item “2.1” in Example 1. • 2.2. Grouping, administration, and model establishment: • 2.2.1 Grouping: 50 rats were randomly divided into 5 groups according to their body weights, 10 rats for each group: • (1) model group; (2) colchicine group (0.15 mg/kg); (3) B4 subcutaneous injection group (2.5 mg/kg*2); (4) B4 intramuscular injection group (2.5 mg/kg*2); (5) B4 intravenous injection group (2.5 mg/kg*2). • 2.2.2 Administration: The model group was injected with the same volume of normal saline, and each test group (including B4 groups and colchicine group) was administered only on the day of model building. Among them, colchicine group was administered once, while each B4 group was successively administered two times with an interval of 4 h. • 2.2.3 Model establishment and measurement of joint swelling: the model was initially established 1 h after administrating in the drug groups, and the method was same as that in example 1. Before modeling and 2 h, 4 h, 6 h, 8 h, and 12 h after modeling, the volume of the right ankle joint was measured, and the swelling degree was calculated by “joint volume after modeling joint volume before modeling”. • 3.
# [2] = tested on: rats with acute gouty arthritis induced by MSU; test: Example 1: effect of anemoside B4 on sodium urate (MSU)-induced acute gouty arthritis in rats, joint swelling; format: in vivo, SD rats; design: key to Swelling degree 2 h after modelling / Swelling degree 6 h after modelling / Swelling degree 8 h after modelling / Swelling degree 12 h after modelling / Swelling degree 24 h after modelling: swelling = joint volume after modeling − joint volume before modeling
# Method: 2.1 Preparation of sodium urate (MSU) crystals and suspension: 5 ml of 1 mol/L NaOH solution and 800 mg sodium urate were added to 155 ml depyrogenated sterile water for injection and heated to boiling. Sodium urate was completely dissolved and then cooled down naturally under stirring. After that, 1 mol/L HCl was dropped to pH 7.0, then the solution became milky white, and was immediately centrifuged at 3000 r/min for 2 min. The crystals were collected, dried in an oven at 60° C., placed in an EP tube, and stored at 4° C. Prior to use, MSU crystals were autoclaved at 121° C. for 30 min, and dispersed in PBS to make the required concentration, i.e. to obtain a suspension of sodium urate (MSU). The film preparation of the suspension was performed, and the long fusiform crystals can be seen under the optical microscope.
# 2.2 Grouping, administration, and model establishment: 60 rats were randomly divided into 6 groups according to their body weights, 10 rats for each group: (1) model group; (2) colchicine group (0.3 mg/kg); (3) B4 subcutaneous injection group (5 mg/kg*2); (4) B4 intravenous injection group (5 mg/kg*2); (5) B4 intramuscular injection high-dose group (5 mg/kg*2); (6) B4 intramuscular injection low-dose group (2.5 mg/kg*2); normal group (5 rats). The normal group and the model group were injected with the same volume of normal saline, and each of B4 groups was given corresponding drugs by the corresponding route of administration for 3 days, twice a day, with an interval of 4 hours between two times.
# Modeling method: on the day of modeling, the model was initially established 1 h after administrating in the drug groups. Among them: • (1) Model group: each rat was injected with 40 mg/mL MSU suspension to the back of the right ankle joint at a dose of 0.2 mL/rat; • (2) Colchicine group: the colchicine group was administered once on the day of modeling, and 1 h after administration, each rat was injected with 40 mg/mL MSU suspension on the dorsal side of the right ankle joint at a dose of 0.2 mL/mouse; • (3)-(6) B4 groups: 1 h after the last administration, each rat was injected with 40 mg/mL MSU suspension on the dorsal side of the right ankle joint at 0.2 mL/mouse, and 3 h after modeling, each test group was further administrated once.
# 2.3 Measurement of joint swelling: before modeling and 2 h, 4 h, 6 h, 8 h, 12 h, 24 h after modeling, the volume of the right ankle joint was measured, and the swelling degree was calculated by “joint volume after modeling-joint volume before modeling”.
# [3] = B4 intramuscular injection group, 2.5mg/kg * twice
# [4] = B4 intravenous injection group, 2.5mg/kg * twice
# [5] = B4 subcutaneous injection group, 2.5 mg/kg * twice
# [6] = B4 intramuscular high-dose group, 5 mg/kg * 2
# [7] = B4 intramuscular low-dose group, 2.5 mg/kg * 2
# [8] = B4 intravenous injection group, 5 mg/kg * 2
# [9] = B4 subcutaneous injection group, 5 mg/kg * 2
smiles,measurement,setting,value
"C=C(C)C1CCC2(C(=O)O[C@@H]3O[C@H](CO[C@@H]4O[C@H](CO)[C@@H](O[C@@H]5O[C@@H](C)[C@H](O)[C@@H](O)[C@H]5O)[C@H](O)[C@H]4O)[C@@H](O)[C@H](O)[C@H]3O)CC[C@]3(C)[C@H](CC[C@@H]4[C@@]5(C)CC[C@H](OC6OC[C@H](O)[C@H](O)[C@H]6O[C@@H]6O[C@@H](C)[C@H](O)[C@@H](O)[C@H]6O)[C@@](C)(CO)[C@@H]5CC[C@]43C)[C@@H]12 (stereo partly shown) [B4, anemoside B4]",alleviating the joint swelling of acute gouty arthritis (conclusion),"[1]; B4 injection, Example 2",significant effect
same,Swelling degree 2 h after modelling,[1]; [3],0.099 ± 0.08
same,Swelling degree 4 h after modelling,[1]; [3],0.130 ± 0.07
same,Swelling degree 6 h after modelling,[1]; [3],0.090 ± 0.07
same,Swelling degree 8 h after modelling,[1]; [3],0.134 ± 0.10^Δ
same,Swelling degree 12 h after modelling,[1]; [3],0.097 ± 0.17^Δ
same,swelling degree of the joint compared with the model group,"[1]; B4 intramuscular injection group, 8-12 h after modelling",obviously reduced and significantly different
same,"joint swelling degree, rank among groups","[1]; B4 intramuscular injection group, 12 h after modeling",smallest in all groups
same,Swelling degree 2 h after modelling,[1]; [4],0.113 ± 0.09
same,Swelling degree 4 h after modelling,[1]; [4],0.099 ± 0.10
same,Swelling degree 6 h after modelling,[1]; [4],0.108 ± 0.18
same,Swelling degree 8 h after modelling,[1]; [4],0.113 ± 0.24^Δ
same,Swelling degree 12 h after modelling,[1]; [4],0.124 ± 0.27^Δ
same,swelling degree of the joint compared with the model group,"[1]; B4 intravenous injection group, 8-12 h after modelling",obviously reduced and significantly different
same,Swelling degree 4 h after modelling,[1]; [5],0.008 ± 0.11
same,Swelling degree 6 h after modelling,[1]; [5],0.040 ± 0.09^Δ
same,Swelling degree 8 h after modelling,[1]; [5],0.103 ± 0.18^Δ
same,Swelling degree 12 h after modelling,[1]; [5],0.103 ± 0.16^Δ
same,Swelling degree 2 h after modelling,"[1]; B4 subcutaneous injection group, 2.5 mg/kg * twice, day of modelling only",0.067 ± 0.10
same,"joint swelling degree, rank among groups","[1]; B4 subcutaneous injection group, 2-8 h after modeling",smallest in all groups
same,swelling degree of the joint compared with the model group,"[1]; B4 subcutaneous injection group, 6-12 h after modelling",obviously reduced and significantly different
same,"effect on reducing the joint swelling of acute gouty arthritis caused by sodium urate, compared with colchicine",[1]; administration routes and dosages of Example 2,equivalent to that of colchicine
same,Swelling degree 2 h after modelling,[2]; [6],0.15 ± 0.10
same,Swelling degree 4 h after modelling,[2]; [6],0.15 ± 0.09^Δ
same,Swelling degree 6 h after modelling,[2]; [6],0.19 ± 0.11
same,Swelling degree 8 h after modelling,[2]; [6],0.28 ± 0.11
same,Swelling degree 12 h after modelling,[2]; [6],0.33 ± 0.16
same,Swelling degree 24 h after modelling,[2]; [6],0.35 ± 0.23
same,swelling degree of the joints compared with the model group,"[2]; B4 intramuscular injection group, 2-4 h after modelling",significantly reduced
same,Swelling degree 2 h after modelling,[2]; [7],0.12 ± 0.07^Δ
same,Swelling degree 4 h after modelling,[2]; [7],0.11 ± 0.11^Δ
same,Swelling degree 6 h after modelling,[2]; [7],0.20 ± 0.11
same,Swelling degree 8 h after modelling,[2]; [7],0.32 ± 0.18
same,Swelling degree 12 h after modelling,[2]; [7],0.38 ± 0.23
same,Swelling degree 24 h after modelling,[2]; [7],0.55 ± 0.35
same,Swelling degree 4 h after modelling,[2]; [8],0.08 ± 0.18^Δ
same,Swelling degree 6 h after modelling,[2]; [8],0.13 ± 0.14^Δ
same,Swelling degree 8 h after modelling,[2]; [8],0.23 ± 0.21
same,Swelling degree 12 h after modelling,[2]; [8],0.22 ± 0.19
same,Swelling degree 24 h after modelling,[2]; [8],0.28 ± 0.21
same,Swelling degree 2 h after modelling,"[2]; B4 intravenous injection group, 5 mg/kg * 2, 3 days, right ankle joint volume after minus before modelling",0.17 ± 0.14
same,swelling degree of the joints compared with the model group,"[2]; B4 intravenous injection group, 4-6 h after modelling",significantly reduced
same,Swelling degree 2 h after modelling,[2]; [9],0.10 ± 0.08^Δ
same,Swelling degree 4 h after modelling,[2]; [9],0.07 ± 0.08^ΔΔ
same,Swelling degree 6 h after modelling,[2]; [9],0.13 ± 0.09^Δ
same,Swelling degree 8 h after modelling,[2]; [9],0.21 ± 0.13
same,Swelling degree 12 h after modelling,[2]; [9],0.27 ± 0.15
same,Swelling degree 24 h after modelling,[2]; [9],0.28 ± 0.16
same,swelling degree of the joints compared with the model group,"[2]; B4 subcutaneous injection group, 2-6 h after modelling",significantly reduced
same,"effect on reducing the acute joint swelling caused by sodium urate (MSU) crystals, compared with colchicine",[2]; administration routes and dosages of Example 1,equivalent to that of colchicine
same,joint swelling of acute gouty arthritis (conclusion),"[2]; subcutaneous, intramuscular and intravenous injection",significantly alleviate
"COc1cc2c(c(OC)c1OC)-c1ccc(OC)c(=O)cc1[C@@H](NC(C)=O)CC2 [Colchicine, colchicine, reference compound]",Swelling degree 4 h after modelling,"[1]; Colchicine group, 0.15 mg/kg",0.082 ± 0.11
same,Swelling degree 6 h after modelling,"[1]; Colchicine group, 0.15 mg/kg",0.056 ± 0.11^Δ
same,Swelling degree 8 h after modelling,"[1]; Colchicine group, 0.15 mg/kg",0.135 ± 0.13^Δ
same,Swelling degree 12 h after modelling,"[1]; Colchicine group, 0.15 mg/kg",0.128 ± 0.13^Δ
same,Swelling degree 2 h after modelling,"[1]; Colchicine group, 0.15 mg/kg, once on the day of model building",0.155 ± 0.07
same,swelling degree of the joint compared with the model group,"[1]; colchicine group, 6-12 h after modelling",obviously reduced and significantly different
same,Swelling degree 4 h after modelling,"[2]; Colchicine group, 0.3 mg/kg",0.13 ± 0.11^Δ
same,Swelling degree 6 h after modelling,"[2]; Colchicine group, 0.3 mg/kg",0.19 ± 0.14
same,Swelling degree 8 h after modelling,"[2]; Colchicine group, 0.3 mg/kg",0.25 ± 0.20
same,Swelling degree 12 h after modelling,"[2]; Colchicine group, 0.3 mg/kg",0.35 ± 0.23
same,Swelling degree 24 h after modelling,"[2]; Colchicine group, 0.3 mg/kg",0.33 ± 0.11
same,Swelling degree 2 h after modelling,"[2]; Colchicine group, 0.3 mg/kg, once on the day of modeling",0.14 ± 0.08
same,swelling degree of the joints compared with the model group,"[2]; colchicine group, 4 h after modelling",significantly reduced
